Holding throughout (test): growth of human tumour cells (NCI), 48 h
Assay [1] concerns UACC-62.
Assay [2] concerns UO-31.
Assay [3] deals with MDA-MB-231.
The subject of assay [4] is MDA-MB-435.
The test system of assay [5] is MCF7.
Assay [6] relates to HCC 2998.
Assay [7] has as its system SF-295.
For assay [8], the system named is SF-268.
Assay [9] relates to T47D.
Assay [10] has as its system HCT-116.
Assay [11] has as its system U-251.
Assay [12] concerns K562.
Assay [13] has as its system A549.
Assay [14] relates to SNB-19.
For assay [15], the system named is UACC-257.
The test system of assay [16] is PC-3.
Assay [17] concerns HT-29.
In assay [18] the test system is ACHN.
The subject of assay [19] is CCRF-CEM.
The subject of assay [20] is SF-539.

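Test compounds were applied to cells in 96-well plates for 48 hours at 5 doses. GI50 = concentration required for 50% inhibition of growth.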 The source made the active and inactive calls. No stated cut-off is given here; in the data, active = GI50 up to about 1.1 µM and inactive = higher.

Experimental findings from ChEMBL document CHEMBL1201862, “PubChem BioAssay data set” (2004) are described below.

Turning to `OCCN(CCO)c1ccc2c(-c3ccccc3)cc(N(CCO)CCO)nc2n1`, the GI50 in [1], in [2], in assay [3], in assay [4], in assay [5] and in [6] was > 100 µM (inactive) in each case. For the same molecule, the GI50 in assay [7], in assay [8], in [9], in [10], in assay [11] and in [12] was > 100 µM (inactive) in each case. Also, the GI50 in assay [13], in [14], in assay [15], in assay [16], in assay [17] and in [18] was > 100 µM (inactive) throughout. In addition, the GI50 in [19] was > 100 µM (inactive).

Turning to `NC12CC3CC4C1CC1CC2C(C3)C4(N)C1`, the GI50 in assay [1], in [2], in assay [3], in [4], in [5] and in [7] was > 100 µM (inactive) throughout. The GI50 in assay [8], in [9], in [10], in [11], in assay [12] and in [13] was > 100 µM (inactive) each time. For the same molecule, the GI50 in [14], in assay [15], in [16], in assay [17], in assay [18] and in [19] was > 100 µM (inactive) throughout.

As to `Cc1cc2[nH]c3c(C#N)c(-c4ccccc4)c(/C=N/c4ccc(Cl)cc4)c(=O)n3c2cc1C`, the GI50 in assay [2], in assay [20], in [3], in [4], in assay [5] and in assay [6] was > 100 µM (inactive) in each case. Moreover, the GI50 in assay [7], in assay [8], in assay [9], in [10], in assay [11] and in [13] was > 100 µM (inactive) each time. Besides, the GI50 in assay [14], in assay [15], in assay [16], in [18] and in assay [19] was > 100 µM (inactive) in each case.

Regarding `CSCCCNC(=O)c1csc(-c2csc(C(CNC(=O)OC(C)(C)C)CNC(=O)OC(C)(C)C)n2)n1`, the GI50 in assay [1] was 18.1 µM (inactive); in assay [2], 31.8 µM (inactive); in [20] it was 45 µM (inactive); in [3] it was 57.8 µM (inactive); in assay [4], 45 µM (inactive); in assay [5] it was 57.9 µM (inactive). Also, the GI50 in [7] is 38.6 µM (inactive); in assay [8], 76.2 µM (inactive); in [9], 29.2 µM (inactive); in [10], 31.4 µM (inactive); in assay [11] it was 25.6 µM (inactive); in assay [12], 33.6 µM (inactive). Moreover, the GI50 in assay [14] is 58.3 µM (inactive); in [15], 40.6 µM (inactive); in assay [16], 28.4 µM (inactive); in assay [18], 30.9 µM (inactive); in assay [19], 16.6 µM (inactive).

Regarding `Cc1ccc2c(=O)cc(Cc3csc4ccccc34)[nH]c2n1`, the GI50 in [1] was 27 µM (inactive); in [2] it was 22.4 µM (inactive); in assay [3], 52.5 µM (inactive); in assay [4], 32.6 µM (inactive); in assay [5], 35.2 µM (inactive); in assay [7], 26 µM (inactive). Besides, the GI50 in assay [8] was 21.3 µM (inactive); in assay [9] it was 19 µM (inactive); in assay [10], 28.8 µM (inactive); in assay [11], 69.8 µM (inactive); in assay [12] it was 43.5 µM (inactive); in assay [13], 27.4 µM (inactive). In addition, the GI50 in assay [14] was 39.7 µM (inactive); in assay [15] it was 38.6 µM (inactive); in assay [16], 67 µM (inactive); in assay [17], 35.1 µM (inactive); in assay [19], 41.4 µM (inactive).

Consider `O=C1Nc2ccccc2/C1=N/Nc1nc(-c2cccc([N+](=O)[O-])c2)cs1`, for which the GI50 is 26.7 µM (inactive) in [1]; 55.3 µM (inactive) in assay [2]; 24 µM (inactive) in assay [20]; 17.7 µM (inactive) in [3]; 34.4 µM (inactive) in assay [4]; 23.9 µM (inactive) in [5]. The GI50 in assay [6] is 18.1 µM (inactive); in [7], 20.7 µM (inactive); in assay [8], 19.7 µM (inactive); in [9] it was 27.3 µM (inactive); in assay [10], 19.2 µM (inactive); in assay [11] it was 21.4 µM (inactive). For the same molecule, the GI50 in [13] was 20.1 µM (inactive); in assay [14] it was 26.7 µM (inactive); in assay [15], 19.3 µM (inactive); in [16], 28.2 µM (inactive); in assay [17], 17.7 µM (inactive); in [18], 31.4 µM (inactive). Moreover, the GI50 in assay [19] was 32.8 µM (inactive).

`COc1ccc(NC=O)c(C(O)CCNC(C)=O)c1` (configuration not stated): the GI50 in [1], in [2], in assay [20], in [3], in [4] and in assay [5] was > 100 µM (inactive) each time. Also, the GI50 in assay [7], in assay [8], in assay [9], in [10], in assay [11] and in [12] was > 100 µM (inactive) throughout. Also, the GI50 in [13], in [14], in assay [15], in [16], in assay [17] and in assay [18] was > 100 µM (inactive) each time. Moreover, the GI50 in assay [19] is > 100 µM (inactive).

On to `CCC(=O)N(c1ccccc1)C(C)CN1CCC(O)(c2ccccc2)CC1` (configuration not stated), for which the GI50 in [1], in assay [2], in assay [20], in assay [3], in [4] and in assay [5] was > 100 µM (inactive) in each case. Moreover, the GI50 in [7] is > 100 µM (inactive); in assay [8], > 100 µM (inactive); in [9], > 100 µM (inactive); in assay [10], 80.9 µM (inactive); in assay [11], > 100 µM (inactive); in assay [12], 74.1 µM (inactive). In addition, the GI50 is > 100 µM (inactive) in assay [13]; > 100 µM (inactive) in assay [14]; > 100 µM (inactive) in assay [15]; > 100 µM (inactive) in [16]; 58.3 µM (inactive) in assay [17]; > 100 µM (inactive) in assay [18]. Further, in [19], the GI50 was > 100 µM (inactive).

As for `O=[N+]([O-])c1ccc2c(c1)c(S(=O)(=O)O)cc1nonc12`, the GI50 in [1], in [2], in [20], in [3], in assay [4] and in assay [5] was > 100 µM (inactive) each time. For the same molecule, the GI50 in assay [7], in assay [8], in assay [9], in [10], in assay [11] and in assay [12] was > 100 µM (inactive) each time. The GI50 in [13], in [14], in [15], in assay [16], in assay [17] and in assay [18] was > 100 µM (inactive) throughout.

`Cc1c(N)nc([C@H](CC(N)=O)NC[C@H](N)C(N)=O)nc1C(=O)N[C@H](C(=O)N[C@H](C)[C@@H](O)CC(=O)N[C@H](C(=O)NC(O[C@@H]1O[C@@H](C)[C@@H](N)[C@@H](O)[C@H]1O)C(O)c1nc(-c2nc(C(=O)NCCC[S+](C)C)cs2)cs1)[C@@H](C)O)[C@H](O[C@@H]1O[C@@H](CO)[C@@H](O)[C@H](O)[C@@H]1O[C@H]1O[C@H](CO)[C@@H](O)[C@H](OC(N)=O)[C@@H]1O)c1c[nH]cn1` (some centres not stated): the GI50 in [1] is 35.4 µM (inactive); in assay [2] it was 26.7 µM (inactive); in [20], 2.2 µM (inactive); in assay [3], > 100 µM (inactive); in assay [4] it was > 100 µM (inactive); in assay [5] it was 39.4 µM (inactive). For the same molecule, the GI50 in assay [6] is 8.39 µM (inactive); in assay [7] it was 5.46 µM (inactive); in assay [8], 39.2 µM (inactive); in [9], > 100 µM (inactive); in [10] it was 15.1 µM (inactive); in assay [11], 92.5 µM (inactive). In addition, the GI50 in [13] is 19.7 µM (inactive); in assay [14], > 100 µM (inactive); in assay [15], > 100 µM (inactive); in assay [16] it was 65 µM (inactive); in assay [17], 82.8 µM (inactive); in [18], 0.773 µM (active). Moreover, in assay [19], the GI50 was > 100 µM (inactive).
